One assay concerns SARS-CoV-2 pseudovirus. The class given is cell-based.
The next assay relates to SARS-CoV pseudovirus. The format is cell-based.

The results in this text go back to patent US11518788B2, “Methods and compositions for treating and preventing viral infection” (priority 2020, dated 2022).

Regarding ACE2-Fc, in the assay with SARS-CoV-2 pseudovirus, the “inhibition of SARS-CoV-2 pseudovirus entry” value is “inhibited” and the “percent infection of SARS-CoV-2 pseudovirus particles” value was “reduced percent infection”. The “inhibition of SARS-CoV pseudovirus entry” value with SARS-CoV pseudovirus is “inhibited”.
As for heparin [reference compound], the “efficiency of inhibition of SARS-CoV-2 compared with SARS-CoV and MERS CoV” value with SARS-CoV-2 pseudovirus is “more efficiently than it does for SARS-CoV and MERS CoV”.
